Assay [1] concerns the target T1, Recombinant STAT3 protein (STAT3(G127-I722)) (Homo sapiens, UniProt P40763).
T1 construct: Recombinant STAT3 protein (STAT3(G127-I722))
Put plainly: STAT3 Fluorescence Polarization (FP) Assay. Format: binding. Particulars: STAT3(G127-I722) 25 nM, probe 5-FAM-GpYLPQTV-NH2 2 nM, 45-minute incubation. A digest of the protocol:
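STAT3(G127-I722), 25 nM, was mixed with 2 nM 5-FAM-GpYLPQTV-NH2 probe in HEPES pH 7.4 buffer with 1% DMSO and serially diluted compound. FP (mP) was read after 45 min at room temperature. IC50 came from nonlinear regression.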
In general terms: Polarisation of emitted light reports the rotation of a fluorescent probe.

In assay [2] the target is T2, Recombinant STAT6 protein (STAT6(W123-T658)) (Homo sapiens, UniProt P42226).
T2 construct: Recombinant STAT6 protein (STAT6(W123-T658))
T2 sequence (P42226 123-658): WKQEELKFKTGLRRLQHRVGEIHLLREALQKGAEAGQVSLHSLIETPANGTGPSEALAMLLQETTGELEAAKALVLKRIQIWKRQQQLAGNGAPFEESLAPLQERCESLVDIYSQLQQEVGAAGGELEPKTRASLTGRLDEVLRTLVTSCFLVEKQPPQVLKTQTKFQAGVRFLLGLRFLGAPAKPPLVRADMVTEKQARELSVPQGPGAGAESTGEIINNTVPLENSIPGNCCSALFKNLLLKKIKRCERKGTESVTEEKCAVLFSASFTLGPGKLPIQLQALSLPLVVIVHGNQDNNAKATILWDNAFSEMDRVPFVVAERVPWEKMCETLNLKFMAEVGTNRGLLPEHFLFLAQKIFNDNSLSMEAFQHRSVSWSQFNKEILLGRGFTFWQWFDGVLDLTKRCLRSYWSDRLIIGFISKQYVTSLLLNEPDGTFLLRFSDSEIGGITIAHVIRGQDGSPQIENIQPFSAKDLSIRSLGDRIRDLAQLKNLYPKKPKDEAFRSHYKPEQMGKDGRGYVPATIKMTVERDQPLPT
The experiment in a line: STAT6 Fluorescence Polarization (FP) Assay. Format: binding. The settings on record: STAT6(W123-T658) 250 nM, probe 5-FAM-ApYKPFQDLI-NH2 2 nM, 45-minute incubation. A digest of the protocol:
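Displacement of a fluorescent phosphotyrosine peptide (5-FAM-ApYKPFQDLI-NH2, 2 nM) from STAT6(W123-T658) (250 nM), 1% DMSO, pH 7.4 HEPES buffer. After 45 min at room temperature, polarization (mP) was plotted versus log compound concentration and fitted by nonlinear regression to give IC50.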

The record followed here is US20250179103A1, “6-OXODECAHYDROPYRROLO[1,2-A][1,5]DIAZOCINE AND 6-OXODECAHYDRO-4H-PYRROLO[2,1-D][1,5]THIAZOCINE DERIVATIVES AS STAT3 AND STAT6 MODULATORS FOR THE TREATMENT OF CANCER AND INFLAMMATORY CONDITIONS” (Recludix Pharma, Inc., priority 2022, published 2025).

Structures are written as SMILES. Bounds are passed on as bounds.

T1 sequence (P40763 127-722): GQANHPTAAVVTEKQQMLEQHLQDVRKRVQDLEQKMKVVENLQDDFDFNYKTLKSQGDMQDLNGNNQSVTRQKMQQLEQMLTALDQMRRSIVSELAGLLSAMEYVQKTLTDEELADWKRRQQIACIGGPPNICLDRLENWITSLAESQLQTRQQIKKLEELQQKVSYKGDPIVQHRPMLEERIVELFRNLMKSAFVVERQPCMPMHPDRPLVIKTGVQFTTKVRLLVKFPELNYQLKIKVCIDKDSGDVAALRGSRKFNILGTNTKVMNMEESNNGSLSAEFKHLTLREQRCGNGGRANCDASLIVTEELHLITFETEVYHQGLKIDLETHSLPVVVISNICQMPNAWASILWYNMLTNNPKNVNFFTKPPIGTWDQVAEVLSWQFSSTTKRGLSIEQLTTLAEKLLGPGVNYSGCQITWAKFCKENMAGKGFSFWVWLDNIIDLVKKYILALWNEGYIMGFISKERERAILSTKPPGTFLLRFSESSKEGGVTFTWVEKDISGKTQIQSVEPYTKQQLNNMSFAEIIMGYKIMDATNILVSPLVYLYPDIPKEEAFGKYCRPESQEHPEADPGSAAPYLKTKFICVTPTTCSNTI

For `Cc1ccc2onc(C(=O)N3CC[C@H]4CC[C@@H](C(=O)N5C(=O)N(c6cccnc6)C(=O)C56CC6)N4C(=O)[C@@H](NC(=O)c4ccc5ccc([C@H](F)P(=O)(O)O)cc5c4)C3)c2c1` [Compound 386, ((R)-(7-(((5S,8S, 10aR)-8-(5,7-dioxo-6-(pyridin-3-yl)-4,6-diazaspiro[2.4]heptane-4-carbonyl)-3-(5-methylbenzo[d]isoxazole-3-carbonyl)-6-oxodecahydropyrrolo [1,2-a][1,5]diazocin-5-yl)carbamoyl)naphthalen-2-yl)fluoromethyl)phosphonic acid], the results for the half-inhibitory concentration (IC50) in assay [1] and in assay [2] were > 10 µM and ≤ 0.3 µM, respectively.
As for `Cc1ccc2onc(C(=O)N3CC[C@H]4CC[C@@H](C(=O)N5C[C@@H](c6ccn(C)c(=O)c6)CC56CC6)N4C(=O)[C@@H](NC(=O)c4ccc5ccc([C@H](F)P(=O)(O)O)cc5c4)C3)c2c1` [Compound 387, ((R)-fluoro(7-(((5S, 8S,10aR)-8-((R)-6-(1-methyl-2-oxo-1,2-dihydropyridin-4-yl)-4-azaspiro[2.4]heptane-4-carbonyl)-3-(5-methylbenzo[d]isoxazole-3-carbonyl)-6-oxodecahydro-pyrrolo[1,2-a][1,5]diazocin-5-yl)carbamoyl)naphthalen-2-yl)methyl) phosphonic acid], the IC50 in assay [1] is > 10 µM; in assay [2], ≤ 0.3 µM.
For `COc1cc(C(=O)N[C@H]2CN(C(=O)c3noc4ccc(C)cc34)CC[C@H]3CC[C@@H](C(=O)N4CCOCC4)N3C2=O)cc2cc(CP(=O)(O)O)ccc12` [Compound 388, ((5-methoxy-7-(((5S, 8S,10aR)-3-(5-methylbenzo[d]isoxazole-3-carbonyl)-8-(morpholine-4-carbonyl)-6-oxodecahydropyrrolo [1,2-a][1,5]diazocin-5-yl)carbamoyl)naphthalen-2-yl)methyl) phosphonic acid] the same measures were > 10 µM and 0.3 to 3 µM.
Consider `Cc1cc(Cl)cc(C(=O)N2CC[C@H](NC(=O)c3ccc4ccc(C(F)P(=O)(O)O)cc4c3)C(=O)N3[C@H](CC[C@H]3C(=O)N3CCOCC3)C2)c1` (stereo partly drawn) [Compound 389, ((7-(((5S,8S,10aR)-2-(3-chloro-5-methyl-benzoyl)-8-(morpholine-4-carbonyl)-6-oxodecahydropyrrolo [1,2-a][1,4]diazocin-5-yl)carbamoyl)naphthalen-2-yl)fluoromethyl) phosphonic acid], for which the IC50 in assay [1] is > 10 µM; in assay [2] it was 0.3 to 3 µM.
For `Cc1ccc2onc(C(=O)N3CC[C@H]4CC[C@@H](C(=O)N5C[C@H](c6ccn(C)c(=O)c6)CC56CC6)N4C(=O)[C@@H](NC(=O)c4ccc5ccc([C@H](F)P(=O)(O)O)cc5c4)C3)c2c1` [Compound 390, ((R)-fluoro(7-(((5S, 8S,10aR)-8-((S)-6-(1-methyl-2-oxo-1,2-dihydropyridin-4-yl)-4-azaspiro[2.4]heptane-4-carbonyl)-3-(5-methylbenzo[d]isoxazole-3-carbonyl)-6-oxodecahydropyrrolo [1,2-a][1,5]diazocin-5-yl)carbamoyl)naphthalen-2-yl)methyl)phosphonic acid], in that order: 1 to 10 µM and ≤ 0.3 µM.
Turning to `Cc1ccc2onc(C(=O)N3CC[C@H]4CC[C@@H](C(=O)N5C[C@H](c6ccn(C)c(=O)c6)CC56CC6)N4C(=O)[C@@H](NC(=O)c4ccc5ccc([C@@H](F)P(=O)(O)O)cc5c4)C3)c2c1` [Compound 391, ((S)-fluoro(7-(((5S, 8S,10aR)-8-((S)-6-(1-methyl-2-oxo-1,2-dihydropyridin-4-yl)-4-azaspiro[2.4]heptane-4-carbonyl)-3-(5-methylbenzo[d]isoxazole-3-carbonyl)-6-oxodecahydropyrrolo [1,2-a][1,5]diazocin-5-yl)carbamoyl)naphthalen-2-yl)methyl) phosphonic acid], the IC50 is > 10 µM in assay [1] and ≤ 0.3 µM in assay [2].
For `O=C(N[C@H]1CN(c2cc3ccccc3cn2)CC[C@H]2CC[C@@H](C(=O)N3CCOCC3)N2C1=O)c1ccc2ccc(C(F)P(=O)(O)O)cc2c1` (stereo partly drawn) [Compound 392, (fluoro(7-(((5S,8S, 10aR)-3-(isoquinolin-3-yl)-8-(morpholine-4-carbonyl)-6-oxodecahydropyrrolo [1,2-a][1,5]diazocin-5-yl)carbamoyl)naphthalen-2-yl)methyl)phosphonic acid], in that order: 1 to 10 µM and 3 to 30 µM.
For `O=C(N[C@H]1CN(c2ccccn2)C[C@H]2CC[C@@H](C(=O)N3CCOCC3)N2C1=O)c1ccc2ccc(C(F)P(=O)(O)O)cc2c1` (stereo partly drawn) [Compound 393, (fluoro(7-(((4S,7S,9aR)-7-(morpholine-4-carbonyl)-5-oxo-2-(pyridin-2-yl)octahydro-1H-pyrrolo[1,2-a][1,4]diazepin-4-yl)carbamoyl)naphthalen-2-yl)methyl) phosphonic acid] the same measures were > 10 µM and > 30 µM.
For `Cc1ccc2onc(C(=O)N3CC[C@H]4CC[C@@H](C(=O)N5CCOCC5)N4C(=O)[C@@H](NC(=O)c4ccc5cnc(CP(=O)(O)O)cc5c4)C3)c2c1` [Compound 394, ((6-(((5S,8S,10aR)-3-(5-methylbenzo [d]isoxazole-3-carbonyl)-8-(morpholine-4-carbonyl)-6-oxodecahydropyrrolo [1,2-a][1,5]diazocin-5-yl)carbamoyl)isoquinolin-3-yl)methyl) phosphonic acid], in that order: > 10 µM and 3 to 30 µM.
As for `N#C[C@@H]1CN(C(=O)[C@@H]2CC[C@@H]3CCN(CC(F)F)C[C@H](NC(=O)c4cc5cc(C(F)P(=O)(O)O)ccc5s4)C(=O)N32)C[C@H]1c1ccccc1` (stereo partly drawn) [Compound 395, ((2-(((5S,8S,10aR)-8-((3S,4R)-3-cyano-4-phenyl-pyrrolidine-1-carbonyl)-3-(2,2-difluoroethyl)-6-oxodecahydropyrrolo [1,2-a][1,5]diazocin-5-yl)carbamoyl)benzo[b]thiophen-5-yl)fluoromethyl) phosphonic acid], the IC50 in assay [1] is 1 to 10 µM; in assay [2] it was ≤ 0.3 µM.
In the case of `Cc1ccc2onc(C(=O)N3CC[C@H]4CC[C@@H](C(=O)N5CCOCC5)N4C(=O)[C@@H](NC(=O)c4ccc5ccc(CP(=O)(O)O)nc5c4)C3)c2c1` [Compound 396, ((7-(((5S,8S,10aR)-3-(5-methylbenzo[d]isoxazole-3-carbonyl)-8-(morpholine-4-carbonyl)-6-oxodecahydropyrrolo [1,2-a][1,5]diazocin-5-yl)carbamoyl)quinolin-2-yl)methyl)phosphonic acid], the IC50 in assay [1] was > 10 µM; in assay [2], 3 to 30 µM.
For `Cc1ccc2onc(C(=O)N3CC[C@H]4CC[C@@H](C(=O)N5C[C@@H](C)O[C@@H](C)C5)N4C(=O)[C@@H](NC(=O)c4ccc5ccc(C(F)P(=O)(O)O)cc5c4)C3)c2c1` (stereo partly drawn) [Compound 397, ((7-(((5S,8S,10aR)-8-((2S,6R)-2,6-dimethylmorpholine-4-carbonyl)-3-(5-methylbenzo[d]isoxazole-3-carbonyl)-6-oxodecahydropyrrolo [1,2-a][1,5]diazocin-5-yl)carbamoyl)naphthalen-2-yl)fluoromethyl)phosphonic acid] the same measures were > 10 µM and ≤ 0.3 µM.

In general, IC50 refers to the concentration that inhibits the measured activity by half.
